US20250296938A1, “Compounds that Interact with the Ras Superfamily for the Treatment of Cancers, Inflammatory Diseases, Rasopathies, and Fibrotic Disease” (SHY Therapeutics, LLC, priority 2018, published 2025)
Like-named read-outs stand apart in the source and are kept apart here.

Key:
Assay in all cases: Ras GTP binding domain inhibition assay (Cy3-GTP/Cy5-GTP competition)
KRas G12C mutant = test system: KRas G12C mutant; design: species or system human; conditions: 20 μM; for KRas G12C mutant + SOS: % inh.: with SOS; for KRas G12C mutant: % inh.: without SOS
Protocol: (§1) The following method was developed as specific assay for the following proteins: KRas wild type, KRas Q61H mutant, KRas G12C mutant, KRas G12D mutant, HRas wild type, Rac-1, and Rho-A.
(§2) • 25 mM Tris-HCl, pH 7.4 • 27 mM KCl • 137 mM NaCl • 1 mM MgCl2 • 1 mM DTT
(§3) • 50 mM Tris-HCl, pH 7.0 • 1 mM MgCl2 • 1 mM DTT
(§4) The small GTPases proteins: KRas wild type. KRas Q61H mutant, KRas G12C mutant, KRas G12D mutants, HRas wild type, Rac-1, and Rho-A were expressed as His-tagged proteins. In addition, the Guanosine nucleotide Exchange Factor (GEF) Sos protein (residues 556-1049) was expressed as a His-tagged protein. In cells, the guanine nucleotide exchange factor Sos protein promotes activation of Ras proteins by stimulating an exchange of GDP for GTP. The inclusion of Sos to the Ras GTP binding domain inhibition assay may be considered as an alternative representation of physiological cellular conditions for evaluating the inhibitory activity of some of the tested small molecules.
(§5) For the assay, all purified small GTPases proteins were diluted in Buffer-I or Buffer-II to a final concentration of 10-30 μg/mL. 200 μL of each diluted protein was added to a nickel-coated 96-well plate and incubated overnight at 4° C. Then the protein solution was discarded and 200 μL of Buffer-I or Buffer-II was added to each well in the presence of 1% DMSO. Compounds to be tested were added to the protein-coated wells at final concentration of 20 μM, and incubated for 3 hours at room temperature with and without […] of Sos added to the final hour of the incubation. When performing IC50 measurements a serial dilution of all tested concentrations was added. Then Cy3-GTP or Cy5-GTP was added to each well to a final concentration of 100 nM. The labeled GTP was incubated for 45 minutes at room temperature. Following GTP incubation, wells were washed 3× in Buffer-I or Buffer-II and 200 μL of Buffer-I or Buffer-II was added to each well. Following washes, the amount of bound labeled-GTP was measured using a SpectraMax M3 (Molecular Devices).

KRas Q61H mutant = test system: KRas Q61H mutant; design: species or system human; conditions: 20 μM; for KRas Q61H mutant + SOS: % inh.: with SOS; for KRas Q61H mutant: % inh.: without SOS
Protocol: as §1, §2, §3, §4, §5

KRas wild type = test system: KRas wild type; design: species or system human; conditions: 20 μM; for KRas wild type + SOS: % inh.: with SOS; for KRas wild type: % inh.: without SOS
Protocol: as §1, §2, §3, §4, §5

KRas G12D mutant = biological target: T1, KRas G12D mutant (Homo sapiens, UniProt P01116, G12D); conditions: 20 μM
T1 construct: fused on or other part: His tag, used for capture on nickel-coated plates
Protocol: as §1, §2, §3, §4, §5

[1] = with SOS, read-out: KRas G-12D mutant + SOS: % inh.
[2] = without SOS, read-out: KRas G12D mutant: % inh.

| Compound | KRas G12C mutant + SOS: % inh. (KRas G12C mutant) | KRas G12C mutant: % inh. (KRas G12C mutant) | KRas Q61H mutant + SOS: % inh. (KRas Q61H mutant) | KRas Q61H mutant: % inh. (KRas Q61H mutant) | KRas wild type + SOS: % inh. (KRas wild type) | KRas wild type: % inh. (KRas wild type) | inhibition at 20 µM (KRas G12D mutant; [1]) [%] | inhibition at 20 µM (KRas G12D mutant; [2]) [%] |
| --- | --- | --- | --- | --- | --- | --- | --- | --- |
| COC1CCN(c2nc(-c3nccn3C)nc3sc(-c4ccccc4CO)c(-c4ccccc4)c23)C1.Cl (stereo not drawn) | D (76-100% inhibition) | A (1-25% inhibition) | D (76-100% inhibition) | B (26-50% inhibition) | D (76-100% inhibition) | B (26-50% inhibition) | 51 to 75 | 51 to 75 |
| COC1CCN(c2nc(-c3nccn3C)nc3sc(-c4ccc(N)nc4C)c(-c4ccccc4)c23)C1.Cl (stereo not drawn) | A (1-25% inhibition) | A (1-25% inhibition) | A (1-25% inhibition) | A (1-25% inhibition) | A (1-25% inhibition) | A (1-25% inhibition) | 1 to 25 | 1 to 25 |
| COC1CCN(c2nc(-c3nccn3C)nc3sc(-c4ccc(CO)cc4)c(-c4ccccc4)c23)C1.Cl (stereo not drawn) | D (76-100% inhibition) | 0 (0% inhibition) | D (76-100% inhibition) | 0 (0% inhibition) | D (76-100% inhibition) | 0 (0% inhibition) | 51 to 75 | 1 to 25 |
| COC1CCN(c2nc(-c3nccn3C)nc3sc(-c4ccncc4C)c(-c4ccccc4)c23)C1.Cl (stereo not drawn) | B (26-50% inhibition) | B (26-50% inhibition) | B (26-50% inhibition) | A (1-25% inhibition) | A (1-25% inhibition) | B (26-50% inhibition) | 26 to 50 | 26 to 50 |
| COC1CCN(c2nc(-c3nccn3C)nc3sc(-c4ccnc(N(C)C)c4)c(-c4ccccc4)c23)C1.Cl (stereo not drawn) | D (76-100% inhibition) | A (1-25% inhibition) | D (76-100% inhibition) | D (76-100% inhibition) | D (76-100% inhibition) | C (51-75% inhibition) | 51 to 75 | 51 to 75 |
| COC(=O)c1nc(C2NCCN2C)nc(O)c1O (stereo not drawn) | C (51-75% inhibition) | D (76-100% inhibition) | C (51-75% inhibition) | C (51-75% inhibition) | B (26-50% inhibition) | C (51-75% inhibition) | 26 to 50 | 51 to 75 |
| COC1CCN(c2nc(-c3nccn3C)nc3sc(-c4cnn(C)c4)c(-c4ccccc4)c23)C1.Cl (stereo not drawn) | D (76-100% inhibition) | C (51-75% inhibition) | D (76-100% inhibition) | B (26-50% inhibition) | D (76-100% inhibition) | B (26-50% inhibition) | 76 to 100 | 26 to 50 |
| COc1ccc(-c2sc3nc(-c4nccn4C)nc(N4CCC(OC)C4)c3c2-c2ccccc2)cn1.Cl (stereo not drawn) | D (76-100% inhibition) | 0 (0% inhibition) | D (76-100% inhibition) | B (26-50% inhibition) | D (76-100% inhibition) | A (1-25% inhibition) | 51 to 75 | 26 to 50 |
| COc1cc(-c2sc3nc(-c4nccn4C)nc(N4CCC(OC)C4)c3c2-c2ccccc2)ccn1.Cl (stereo not drawn) | D (76-100% inhibition) | C (51-75% inhibition) | C (51-75% inhibition) | C (51-75% inhibition) | C (51-75% inhibition) | C (51-75% inhibition) | 51 to 75 | 51 to 75 |
